Compound	melting point [°C]
NC(=O)[C@@H](C[C@H](O)[C@H](Cc1ccccc1)NC(=O)c1cnc2ccccc2n1)C1(O)CCCCCC1 [Example 290, Quinoxaline-2-carboxylic acid [1(S)-benzyl-4(S)-carbamoyl-2(S)-hydroxy-4-(1-hydroxy-cycloheptyl)-butyl]-amide]	189 to 191
CCC(CC)[C@H](C[C@H](O)[C@H](Cc1ccccc1)NC(=O)c1cnc2ccccc2n1)C(N)=O [Example 203, Quinoxaline-2-carboxylic acid (1(S)-benzyl-4(S)-carbamoyl-5-ethyl-2(S)-hydroxy-heptyl)-amide]	215 to 218
CC(C)(O)CC[C@H](C[C@H](O)[C@H](Cc1ccccc1F)NC(=O)c1cnc2ccccc2n1)C(=O)NO [Example 320, Quinoxaline-2-carboxylic acid [1(S)-(2-fluoro-benzyl)-2(S),7-dihydroxy-4(R)-hydroxycarbamoyl-7-methyl-octyl]-amide]	130 to 131
CC1CCC(O)([C@H](C[C@H](O)[C@H](Cc2ccccc2)NC(=O)c2cnc3ccccc3n2)C(N)=O)C1 (stereo partly drawn) [Example 282, Quinoxaline-2-carboxylic acid [1(S)-benzyl-4(S)-carbamoyl-2(S)-hydroxy-4-(1-hydroxy-3-methyl-cyclopentyl)-butyl]-amide]	187 to 188
CNC(=O)[C@H](CC(C)C)C[C@H](O)[C@H](Cc1ccc(F)cc1)NC(=O)c1cnc2ccccc2c1 [Example 89, Quinoline-3-carboxylic acid [1(S)-(4-fluoro-benzyl)-2(S)-hydroxy-6-methyl-4(R)-methylcarbamoyl-heptyl]-amide]	184 to 186
NC(=O)[C@H](Cc1ccccc1)C[C@H](O)[C@H](Cc1ccccc1)NC(=O)c1cnc2c(F)cccc2c1 [Example 285, 8-Fluoro-quinoline-3-carboxylic acid (1(S)-benzyl-4(R)-carbamoyl-2(S)-hydroxy-5-phenyl-pentyl)-amide]	206 to 209
CC(C)(F)CC[C@H](C[C@H](O)[C@H](Cc1ccccc1)NC(=O)c1cnc2ccccc2n1)C(=O)NCc1cccnc1 [Example 199, Quinoxaline-2-carboxylic acid {1(S)-benzyl-7-fluoro-2(S)-hydroxy-7-methyl-4(R)-[(pyridin-3-ylmethyl)-carbamoyl]-octyl}-amide]	188 to 191
CCCC1CCC(O)([C@H](C[C@H](O)[C@H](Cc2ccccc2)NC(=O)c2cnc3ccccc3n2)C(N)=O)CC1 (stereo partly drawn) [Example 300, Quinoxaline-2-carboxylic acid [1(S)-benzyl-4(S)-carbamoyl-2(S)-hydroxy-4-(1-hydroxy-4-propyl-cyclohexyl)-butyl]-amide]	227 to 228
CNC(=O)[C@H](CC1CCCCC1)C[C@H](O)[C@H](CC1CCCCC1)NC(=O)c1cc2ccccc2cn1 [Example 59, Isoquinoline-3-carboxylic acid (5-cyclohexyl-1(S)-cyclohexylmethyl-2(S)-hydroxy-4(R)-methylcarbamoyl-pentyl)-amide]	205 to 207
CC(C)(F)CC[C@H](C[C@H](O)[C@H](Cc1ccccc1)NC(=O)c1cnc2ccccc2n1)C(=O)NCc1ccncc1 [Example 217, Quinoxaline-2-carboxylic acid {1(S)-benzyl-7-fluoro-2(S)-hydroxy-7-methyl-4(R)-[(pyridin-4-ylmethyl)-carbamoyl]-octyl}-amide]	100 to 104
NC(=O)C1(C[C@H](O)[C@H](Cc2ccccc2)NC(=O)c2cnc3ccccc3n2)Cc2ccccc2C1 [Example 164, Quinoxaline-2-carboxylic acid [1(S)-benzyl-3-(2-carbamoyl-indan-2-yl)-2(S)-hydroxy-propyl]-amide]	90 to 100
CC(C)(F)CC[C@H](C[C@H](O)[C@H](Cc1ccccc1)NC(=O)c1cnc2ccccc2n1)C(=O)NCCc1c[nH]c2ccccc12 [Example 230, Quinoxaline-2-carboxylic acid {1(S)-benzyl-7-fluoro-2(S)-hydroxy-4(R)-[2-(1H-indol-3-yl)-ethylcarbamoyl]-7-methyl-octyl}-amide]	107 to 108
CNC(=O)[C@H](CC1CCCCC1)C[C@H](O)[C@H](CC1CCCCC1)NC(=O)c1cncc2ccccc12 [Example 62, Isoquinoline-4-carboxylic acid (5-cyclohexyl-1(S)-cyclohexylmethyl-2(S)-hydroxy-4(R)-methylcarbamoyl-pentyl)-amide]	220.5 to 224
NC(=O)[C@@H](C[C@H](O)[C@H](Cc1ccccc1)NC(=O)c1ccc2ccccc2n1)C1CCCCC1 [Example 262, Quinoline-2-carboxylic acid (1(S)-benzyl-4(S)-carbamoyl-4-cyclohexyl-2(S)-hydroxy-butyl)-amide]	208 to 210
NC(=O)[C@H](Cc1ccccc1)C[C@H](O)[C@H](Cc1ccccc1)NC(=O)c1cnc2c(c1)CCC2 [Example 286, 6,7-Dihydro-5H-[1]pyrindine-3-carboxylic acid (1(S)-benzyl-4(R)-carbamoyl-2(S)-hydroxy-5-phenyl-pentyl)-amide]	182 to 186
CC1CCC(O)([C@H](C[C@H](O)[C@H](Cc2ccccc2)NC(=O)c2cnc3ccccc3n2)C(=O)NO)CC1 (stereo partly drawn) [Example 283, Quinoxaline-2-carboxylic acid [1(S)-benzyl-2(S)-hydroxy-4(S)-hydroxycarbamoyl-4-(1-hydroxy-4-methyl-cyclohexyl)-butyl]-amide]	114 to 116
CNC(=O)[C@H](CCC(C)(C)F)C[C@H](O)[C@H](Cc1ccc(F)cc1)NC(=O)c1cnc2ccccc2n1 [Example 154, Quinoxaline-2-carboxylic acid [7-fluoro-1(S)-(4-fluoro-benzyl)-2(S)-hydroxy-7-methyl-4(R)-methylcarbamoyl-octyl]-amide]	145 to 147
CNC(=O)[C@H](CC(C)C)C[C@H](O)[C@H](Cc1ccc(OS(=O)(=O)C(F)(F)F)cc1)NC(=O)c1cnc2ccccc2c1 [Example 50, Trifluoro-methanesulfonic acid 4-{3(S)-hydroxy-7-methyl-5(R)-methylcarbamoyl-2(S)-[(quinoline-3-carbonyl)-amino]-octyl}-phenyl ester]	168 to 170
NC(=O)[C@@H](C[C@H](O)[C@H](Cc1ccccc1)NC(=O)c1cnc2ccccc2n1)C1CCOCC1 [Example 204, Quinoxaline-2-carboxylic acid [1(S)-benzyl-4(S)-carbamoyl-2(S)-hydroxy-4-(tetrahydro-pyran-4-yl)-butyl]-amide]	151 to 154
O=C(N[C@@H](Cc1ccccc1)[C@@H](O)C[C@@H](Cc1ccccc1)C(=O)NO)c1cnc2ccccc2n1 [Example 276, Quinoxaline-2-carboxylic acid (1(S)-benzyl-2(S)-hydroxy-4(R)-hydroxycarbamoyl-5-phenyl-pentyl)-amide]	190 to 192
CNC(=O)[C@H](CC1CCCCC1)C[C@H](O)[C@H](Cc1ccc(Cl)cc1)NC(=O)c1cnc2ccccc2c1 [Example 71, Quinoline-3-carboxylic acid [1(S)-(4-chloro-benzyl)-5-cyclohexyl-2(S)-hydroxy-4(R)-methylcarbamoyl-pentyl]-amide]	198 to 201

Source: US20040087571A1, “Methods of using CCR1 antagonists as immunomodulatory agents” (Pfizer Inc, priority 2002, published 2004)
